Measurements reported in US20220105150A1, “AMPHIPATHIC ALPHA-HELICAL ANTIMICROBIAL PEPTIDES TREAT INFECTIONS BY GRAM-NEGATIVE PATHOGENS” (priority 2019, published 2022).
Values after ≈ are worked out from the molar mass of the structure shown. Values joined by “and” are separate entries in the source; they are usually repeats but may differ in a detail not shown here. Identical values can stand only once.

Assays:
[1] = tested on: Acinetobacter baumannii strains resistant to Polymyxin B and Colistin; settings: for MICGM: geometric mean of MIC values from seven strains resistant to Polymyxin B and Colistin; for MIC MB9941: strain MB9941; for MIC MB9941 / MIC MB9949 / MIC MB9951 / MIC MB9952 / MIC MB9953 / MIC MB9955 / MIC MB9963: Mueller-Hinton medium, 37° C., 24 h; for MIC MB9949: strain MB9949; for MIC MB9951: strain MB9951; for MIC MB9952: strain MB9952; for MIC MB9953: strain MB9953; for MIC MB9955: strain MB9955; for MIC MB9963: strain MB9963
[2] = tested on: Acinetobacter baumannii isolates resistant to classical antibiotics; format: cell-based; settings: for MICGM: geometric mean over 20 strains; for MIC 101887: strain 101887 (lower line); for MIC 961997: strain 961997 (lower line); for MIC 963618: strain 963618 (lower line); for MIC 964304: strain 964304 (lower line); for MIC 977751: strain 977751 (lower line); for MIC 981653: strain 981653 (lower line); for MIC 1002956: strain 1002956 (lower line); for MIC 1007660: strain 1007660 (lower line); for MIC 1010282: strain 1010282 (lower line); for MIC 1035166: strain 1035166 (lower line)
human red blood cells = test: Hemolytic activity on human red blood cells; settings: for HC50: 50% hemolysis of human red blood cells after 18 h at 37° C.; for HC50 Fold Decrease: same peptide with and without specificity determinants
Method: For comparison, the inventors also determined the hemolytic activity after 18 hours at 37° C. Hemolysis can be determined with red blood cells (RBC) from various species including human red blood cells (hRBC).
The coupling procedure used 5 equivalents of Fmoc-D-amino acid or Fmoc-L-amino acid and HCTU (O-(1H-6-chlorobenzotriazole-1-yl)-1,1,3,3-tetramethyluronium hexafluorophosphate) and 6-Cl-HOBt (1-hydroxy-6-chloro-benztriazole) at 4.5 equivalents in DMF (Fisher Scientific, Denver, Colo.) and N-diisopropylethylamine (DIPEA) 10 equivalents (Oakwood Products, Inc., Estill, S.C.) in N-methyl-2-pyrrolidinone (NMP) (Fisher Scientific, Denver, Colo.) with the first and second couplings at room temperature for 30 min each. The deprotection procedure (removal of Fmoc protecting group) was carried out by treatment of the resin with 0.1 M HOBt (1-hydroxybenzotriazole) in DMF with 20% piperidine for 30 min. […] The resin was removed by filtration and peptide was precipitated with ice-cooled ethyl ether on ice for 15 min. Ether was decanted, the peptide was washed twice with ether and redissolved in acetonitrile/water (1:1, with 0.2% TFA) and the solution lyophilized to obtain the crude peptide. • Analytical and Preparative Purification by Reversed-Phase Chromatography: Analytical RP-HPLC: Column, Luna C18 (2), 250×4.6 mm I.D., 5 μm particle size, 100 Å pore size from Phenomenex (Torrance, Calif.). Run conditions: linear AB gradient (1% acetonitrile/min, starting from 2% acetonitrile) at a flow-rate of 1 ml/min, where eluent A is 0.2% aq. TFA and eluent B is 0.18% TFA in acetonitrile; temperature, 30° C. Preparative RP-HPLC: Peptides were dissolved in 0.2% aq. TFA containing 2% acetonitrile to a final concentration of 10 mg/ml. Following filtration through a 0.45 μm Millipore filter and subsequently through a 0.22 μm filter, the peptide solutions were loaded onto the column via multiple 20-ml injections into a 20-ml injection loop at a flow-rate of 10 ml/min. Column, Luna C18 (2), 250×30 mm I.D., 5 um particle size, 100 Å pore size from Phenomenex. Run conditions: 2% acetonitrile/min gradient up to an acetonitrile concentration 10% below that required to elute the peptide during analytical RP-HPLC, then shallow gradient elution (0.05% or 0.1% acetonitrile/min depending on the complexity of impurities near the product of interest on the analytical run of the crude peptide) at a flow-rate of 10 ml/min (same eluents as shown above for analytical RP-HPLC); at room temperature. • Temperature Profiling of Peptides on Reversed-phase HPLC to Measure Dimerization and Oligomerization: Purified peptides were analyzed on an Agilent 1200 series liquid chromatograph for temperature profiling using a Zorbax 300 SB-C8 column (150 mm×2.1 mm I.D.; 5 μm particle size, 300 Å pore size) from Agilent Technologies. […] Temperature profiling was carried out on peptide mixtures run at each temperature in 2° C. increments from 5° C. to 41° C. and 10° C. increments from 5° C. to 75° C. Twenty minutes was allowed between runs for temperature equilibration. • Characterization of Helical Structure: The mean residue molar ellipticities of peptides were determined by circular dichroism (CD) spectroscopy, using a Jasco J-815 spectropolarimeter (Jasco Inc. Easton, Md., USA) at 5° C. under KP buffer (50 mM NaH2PO4/Na2HPO4/100 mM KCl, pH 7.0) as well as in the presence of an α-helix inducing solvent, 2,2,2-trifluoroethanol, TFE, (50 mM NaH2PO4/Na2HPO4/100 mM KCl, pH 7.0 buffer/50% TFE). A 10-fold dilution of an approximately 500 μM stock solution of the peptide analogs was loaded into a 0.1 cm quartz cell and its ellipticity scanned from 195 to 250 nm.

A. baumannii strain 649 = format: cell-based, Acinetobacter baumannii; settings: for fold loss of antimicrobial activity in 25% human sera: 25% human sera versus no serum; for MIC 25% human serum: MH medium supplemented with 25% (v/v) human sera; for MIC No serum: MH medium
Method: Hemoglobin release was determined spectrophotometrically at 570 nm.
Because only unbound AMP is available to interact with the therapeutic target, the extent of binding between AMPs and serum proteins can have significant effects on efficacy of these drugs. […] This assay estimates the in vivo bioavailability of our AMPs. […] An increase in MIC in the presence of serum is attributed to inhibition of antimicrobial activity due to binding to serum proteins.

[3] = Helical structure by circular dichroism spectroscopy; format: physicochemical; settings: for Aqueous pH 7 [θ]222: 100 mM KCl, 50 mM Na2HPO4/NaH2PO4, pH 7.0; for Aqueous pH 7 [θ]222 / 50% TFE [θ]222: 222 nm; for 50% TFE [θ]222: aqueous buffer containing 50% trifluoroethanol; for Δ[Θ]222 TFE-aqueous: difference 50% TFE minus aqueous; for % Helix Induced: increase in molar ellipticity in the presence of 50% TFE; for Aqueous pH 7 % Helix: relative to molar ellipticity of the peptide in 50% TFE

Row | SMILES | MICGM [1] [µM] | MIC MB9941 [1] [µM] | MIC MB9949 [1] [µM] | MIC MB9951 [1] [µM] | MIC MB9952 [1] [µM] | MIC MB9953 [1] [µM] | MIC MB9955 [1] [µM] | MIC MB9963 [1] [µM] | MICGM [2] [µM] | MIC 101887 [2] [µM] | MIC 961997 [2] [µM] | MIC 963618 [2] [µM] | MIC 964304 [2] [µM] | MIC 977751 [2] [µM] | MIC 981653 [2] [µM] | MIC 1002956 [2] [µM] | MIC 1007660 [2] [µM] | MIC 1010282 [2] [µM] | MIC 1035166 [2] [µM] | HC50 (human red blood cells) | further results
1 | CC(=O)N[C@H](CCCCN)C(=O)N[C@H](CC(C)C)C(=O)N[C@H](CCN)C(=O)N[C@H](CO)C(=O)N[C@H](CC(C)C)C(=O)N[C@H](CC(C)C)C(=O)N[C@H](CCN)C(=O)N[C@@H](C(=O)N[C@H](CC(C)C)C(=O)N[C@H](CO)C(=O)N[C@H](CCN)C(=O)N[C@H](C)C(=O)N[C@H](C)C(=O)N[C@H](C)C(=O)N[C@H](C)C(=O)N[C@H](C)C(=O)N[C@H](CC(C)C)C(=O)N[C@H](CCN)C(=O)N[C@@H](C(=O)N[C@H](CC(C)C)C(=O)N[C@H](CC(C)C)C(=O)N[C@H](CCN)C(=O)N[C@H](C)C(=O)N[C@H](CC(C)C)C(=O)N[C@H](CO)C(=O)N[C@H](CCN)C(N)=O)[C@H](C)O)[C@H](C)O [D86(K13A/K16A)-(Lys^1-6Dab-1), Ac-KL(Dab)SLL(Dab)TLS(Dab)AAAAAL(Dab)TLL(Dab)ALS(Dab)-amide] | 0.9 | 1.5 (≈ 3.87 µg/mL) | 0.8 (≈ 2.07 µg/mL) | 0.8 (≈ 2.07 µg/mL) | 0.8 (≈ 2.07 µg/mL) | 0.8 (≈ 2.07 µg/mL) | 0.8 (≈ 2.07 µg/mL) | 0.8 (≈ 2.07 µg/mL) | 0.9 | 0.5 (≈ 1.29 µg/mL) | 0.8 (≈ 2.07 µg/mL) | 0.8 (≈ 2.07 µg/mL) | 1.5 (≈ 3.87 µg/mL) | 3.1 (≈ 8.01 µg/mL) | 0.4 (≈ 1.03 µg/mL) | 0.8 (≈ 2.07 µg/mL) | 0.8 (≈ 2.07 µg/mL) | 0.8 (≈ 2.07 µg/mL) | 0.8 (≈ 2.07 µg/mL) | 20.0 μg/mL and 7.7 μM | HC50 Fold Decrease (human red blood cells): >−96.4; fold loss of antimicrobial activity in 25% human sera (A. baumannii strain 649): 4 fold; MIC 25% human serum (A. baumannii strain 649): 3.0 µM (≈ 7.75 µg/mL); MIC No serum (A. baumannii strain 649): 0.8 µM (≈ 2.07 µg/mL); Aqueous pH 7 [θ]222 [3]: 2,308 mdeg cm^2/(dmol*res); 50% TFE [θ]222 [3]: 18,731 mdeg cm^2/(dmol*res); Δ[Θ]222 TFE-aqueous [3]: 16,423 mdeg cm^2/(dmol*res); % Helix Induced [3]: 88%; Aqueous pH 7 % Helix [3]: 12%
2 | CC(=O)N[C@H](CCCCN)C(=O)N[C@H](CC(C)C)C(=O)N[C@H](CN)C(=O)N[C@H](CO)C(=O)N[C@H](CC(C)C)C(=O)N[C@H](CC(C)C)C(=O)N[C@H](CN)C(=O)N[C@@H](C(=O)N[C@H](CC(C)C)C(=O)N[C@H](CO)C(=O)N[C@H](CN)C(=O)N[C@H](C)C(=O)N[C@H](C)C(=O)N[C@H](C)C(=O)N[C@H](C)C(=O)N[C@H](C)C(=O)N[C@H](CC(C)C)C(=O)N[C@H](CN)C(=O)N[C@@H](C(=O)N[C@H](CC(C)C)C(=O)N[C@H](CC(C)C)C(=O)N[C@H](CN)C(=O)N[C@H](C)C(=O)N[C@H](CC(C)C)C(=O)N[C@H](CO)C(=O)N[C@H](CN)C(N)=O)[C@H](C)O)[C@H](C)O [D105(K13A/K16A)-(Lys^1-6Dap-1), Ac-KL(Dap)SLL(Dap)TLS(Dap)AAAAAL(Dap)TLL(Dap)ALS(Dap)-amide] | 1.3 | 1.6 (≈ 4 µg/mL) | 0.8 (≈ 2 µg/mL) | 0.8 (≈ 2 µg/mL) | 1.6 (≈ 4 µg/mL) | 1.6 (≈ 4 µg/mL) | 1.6 (≈ 4 µg/mL) | 1.6 (≈ 4 µg/mL) | 2.0 | 3.2 (≈ 8 µg/mL) | 3.2 (≈ 8 µg/mL) | 1.6 (≈ 4 µg/mL) | 3.2 (≈ 8 µg/mL) | 0.8 (≈ 2 µg/mL) | 1.6 (≈ 4 µg/mL) | 1.6 (≈ 4 µg/mL) | 3.2 (≈ 8 µg/mL) | 1.6 (≈ 4 µg/mL) | 3.2 (≈ 8 µg/mL) | 7.2 μg/mL and 2.9 μM | HC50 Fold Decrease (human red blood cells): >−395.9; fold loss of antimicrobial activity in 25% human sera (A. baumannii strain 649): 15 fold; MIC 25% human serum (A. baumannii strain 649): 12.5 µM (≈ 31.2 µg/mL); MIC No serum (A. baumannii strain 649): 0.8 µM (≈ 2 µg/mL); Aqueous pH 7 [θ]222 [3]: 9,577 mdeg cm^2/(dmol*res); 50% TFE [θ]222 [3]: 18,038 mdeg cm^2/(dmol*res); Δ[Θ]222 TFE-aqueous [3]: 8,461 mdeg cm^2/(dmol*res); % Helix Induced [3]: 47%; Aqueous pH 7 % Helix [3]: 53%
